Active and inactive are the calls of the source. The calls are words filed in the database; no cut-off is given here.
How the values were obtained:
[1] = tested on: BT-483; test: Induction of apoptosis in human BT-483 cells assessed as late apoptotic cells at 10 uM by Annexin V-FITC/propidium iodide staining based flow cytometry (reference value: 0.36%); type: functional
[2] = tested on: BT-483; test: Cell cycle arrest in human BT-483 cells assessed as accumulation at G2/M phase at 5 to 10 uM after 24 to 72 hrs; type: functional, cell-based
[3] = tested on: BT-483; test: Effect on total EEF2 protein expression in human BT-483 cells at 5 to 10 uM by Western blot analysis; type: ADME, cell-based; settings: bt-483, 10 µM
[4] = tested on: BT-483; test: Upregulation of Bax protein expression in human BT-483 cells at 5 to 10 uM by Western blot analysis; type: functional, cell-based
[5] = tested on: BT-483; test: Effect on Fas protein expression in human BT-483 cells at 5 to 10 uM by Western blot analysis; type: functional, cell-based
[6] = molecular target: RAC-beta serine/threonine-protein kinase (Homo sapiens) (UniProt P31751); test: Inhibition of wild-type human partial length AKT2 expressed in bacterial expression system assessed as residual activity at 1 uM by Kinomescan method relative to control
Sequence of RAC-beta serine/threonine-protein kinase (Homo sapiens) (P31751 whole entry, the tested form may be a part): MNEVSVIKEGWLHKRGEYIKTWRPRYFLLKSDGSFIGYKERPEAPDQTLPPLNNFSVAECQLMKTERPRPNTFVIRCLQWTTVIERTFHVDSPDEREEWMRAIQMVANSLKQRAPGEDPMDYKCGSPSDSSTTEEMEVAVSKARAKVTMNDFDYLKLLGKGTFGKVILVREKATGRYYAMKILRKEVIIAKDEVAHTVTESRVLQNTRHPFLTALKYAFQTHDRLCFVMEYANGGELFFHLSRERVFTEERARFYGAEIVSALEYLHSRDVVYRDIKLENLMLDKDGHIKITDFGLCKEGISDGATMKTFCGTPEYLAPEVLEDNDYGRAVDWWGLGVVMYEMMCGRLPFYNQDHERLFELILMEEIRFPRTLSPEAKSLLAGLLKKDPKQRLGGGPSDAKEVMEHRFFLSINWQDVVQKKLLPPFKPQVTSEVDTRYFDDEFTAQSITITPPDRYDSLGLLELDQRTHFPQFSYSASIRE

[7] = molecular target: Cyclin-dependent kinase 2 (Homo sapiens) (UniProt P24941); test: Inhibition of wild-type human full length CDK2 (M1 to L298 residues) expressed in bacterial expression system assessed as residual activity at 1 uM by Kinomescan method relative to control
[8] = molecular target: Casein kinase I isoform gamma-2 (Homo sapiens) (UniProt P78368); test: Inhibition of wild-type human full length CSNK1G2 (M1 to K415 residues) expressed in bacterial expression system assessed as residual activity at 1 uM by Kinomescan method relative to control
[9] = tested on: Epidermal growth factor receptor (Homo sapiens), P00533 [L858R]; test: Inhibition of human partial length EGFR L858R mutant (R669 to V1011 residues) expressed in bacterial expression system assessed as residual activity at 1 uM by Kinomescan method relative to control
[10] = molecular target: Ephrin type-A receptor 2 (Homo sapiens) (UniProt P29317); test: Inhibition of wild-type human partial length EPHA2 (T593 to V891 residues) expressed in bacterial expression system assessed as residual activity at 1 uM by Kinomescan method relative to control
Sequence of Ephrin type-A receptor 2 (Homo sapiens) (P29317 whole entry, the tested form may be a part): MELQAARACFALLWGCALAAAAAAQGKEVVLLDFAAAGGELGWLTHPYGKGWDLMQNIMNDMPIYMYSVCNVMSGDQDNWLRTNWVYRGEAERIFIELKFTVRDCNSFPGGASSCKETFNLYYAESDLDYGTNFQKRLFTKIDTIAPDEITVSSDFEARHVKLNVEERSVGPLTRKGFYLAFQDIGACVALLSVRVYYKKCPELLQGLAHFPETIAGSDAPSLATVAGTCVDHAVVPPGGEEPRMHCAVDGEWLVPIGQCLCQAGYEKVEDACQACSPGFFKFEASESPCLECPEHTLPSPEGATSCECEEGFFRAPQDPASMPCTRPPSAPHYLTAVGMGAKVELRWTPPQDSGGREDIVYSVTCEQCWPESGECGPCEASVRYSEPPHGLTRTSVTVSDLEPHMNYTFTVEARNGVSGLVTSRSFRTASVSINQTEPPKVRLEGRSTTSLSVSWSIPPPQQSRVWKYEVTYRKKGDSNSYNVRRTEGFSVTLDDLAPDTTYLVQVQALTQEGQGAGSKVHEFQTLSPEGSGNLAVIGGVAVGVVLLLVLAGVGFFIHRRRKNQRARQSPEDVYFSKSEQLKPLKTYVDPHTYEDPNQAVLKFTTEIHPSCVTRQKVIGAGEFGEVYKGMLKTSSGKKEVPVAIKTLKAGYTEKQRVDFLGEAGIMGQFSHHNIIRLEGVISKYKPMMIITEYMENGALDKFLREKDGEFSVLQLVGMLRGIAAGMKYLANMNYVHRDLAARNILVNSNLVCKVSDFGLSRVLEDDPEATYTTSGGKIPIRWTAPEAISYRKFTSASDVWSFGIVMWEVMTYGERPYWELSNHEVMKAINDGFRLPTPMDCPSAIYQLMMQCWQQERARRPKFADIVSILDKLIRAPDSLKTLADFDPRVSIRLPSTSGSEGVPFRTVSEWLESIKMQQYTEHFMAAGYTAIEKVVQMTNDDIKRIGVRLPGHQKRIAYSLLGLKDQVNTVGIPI

[11] = molecular target: Mitogen-activated protein kinase 1 (Homo sapiens) (UniProt P28482); test: Inhibition of wild-type human full length ERK2 (M1 to S360 residues) expressed in bacterial expression system assessed as residual activity at 1 uM by Kinomescan method relative to control
Sequence of Mitogen-activated protein kinase 1 (Homo sapiens) (P28482 whole entry, the tested form may be a part): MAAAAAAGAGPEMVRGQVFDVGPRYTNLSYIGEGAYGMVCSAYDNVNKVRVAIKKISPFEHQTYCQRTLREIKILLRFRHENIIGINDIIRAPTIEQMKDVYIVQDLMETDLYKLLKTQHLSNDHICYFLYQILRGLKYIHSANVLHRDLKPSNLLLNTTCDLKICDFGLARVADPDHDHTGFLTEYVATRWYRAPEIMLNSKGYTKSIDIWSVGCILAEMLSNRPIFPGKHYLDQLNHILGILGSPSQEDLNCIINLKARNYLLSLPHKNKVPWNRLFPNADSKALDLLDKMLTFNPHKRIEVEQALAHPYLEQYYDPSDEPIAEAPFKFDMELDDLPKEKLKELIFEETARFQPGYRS

[12] = molecular target: Mitogen-activated protein kinase 6 (Homo sapiens) (UniProt Q16659); test: Inhibition of wild-type human partial length ERK3 (M1 to P413 residues) expressed in bacterial expression system assessed as residual activity at 1 uM by Kinomescan method relative to control
Sequence of Mitogen-activated protein kinase 6 (Homo sapiens) (Q16659 whole entry, the tested form may be a part): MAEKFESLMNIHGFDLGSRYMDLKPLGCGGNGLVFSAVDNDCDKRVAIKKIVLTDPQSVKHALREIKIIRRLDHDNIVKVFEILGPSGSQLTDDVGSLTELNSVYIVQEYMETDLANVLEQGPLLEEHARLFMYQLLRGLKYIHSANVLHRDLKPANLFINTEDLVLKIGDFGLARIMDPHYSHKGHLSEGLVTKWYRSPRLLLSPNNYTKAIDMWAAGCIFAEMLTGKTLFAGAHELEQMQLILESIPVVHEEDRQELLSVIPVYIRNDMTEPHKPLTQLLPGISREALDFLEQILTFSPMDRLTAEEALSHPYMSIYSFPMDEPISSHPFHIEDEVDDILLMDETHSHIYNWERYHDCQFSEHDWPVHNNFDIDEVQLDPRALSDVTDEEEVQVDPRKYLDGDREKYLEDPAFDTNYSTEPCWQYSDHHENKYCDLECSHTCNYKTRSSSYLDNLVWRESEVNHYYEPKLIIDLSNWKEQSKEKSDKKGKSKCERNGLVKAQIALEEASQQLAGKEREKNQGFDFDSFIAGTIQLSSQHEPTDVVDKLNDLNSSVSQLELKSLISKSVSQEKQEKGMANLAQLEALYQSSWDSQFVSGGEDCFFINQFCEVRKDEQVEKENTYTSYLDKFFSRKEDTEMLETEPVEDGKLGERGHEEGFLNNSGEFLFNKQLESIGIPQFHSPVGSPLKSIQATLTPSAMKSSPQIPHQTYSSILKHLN

[13] = molecular target: Fibroblast growth factor receptor 4 (Homo sapiens) (UniProt P22455); test: Inhibition of wild-type human partial length FGFR4 (G402 to E713 residues) expressed in bacterial expression system assessed as residual activity at 1 uM by Kinomescan method relative to control
[14] = molecular target: Glycogen synthase kinase-3 beta (Homo sapiens) (UniProt P49841); test: Inhibition of wild-type human full length GSK3B (M1 to T433 residues) expressed in mammalian expression system assessed as residual activity at 1 uM by Kinomescan method relative to control
[15] = molecular target: Insulin-like growth factor 1 receptor (Homo sapiens) (UniProt P08069); test: Inhibition of wild-type human partial length IGF1R (L972 to D1294 residues) expressed in bacterial expression system assessed as residual activity at 1 uM by Kinomescan method relative to control
[16] = molecular target: Inhibitor of nuclear factor kappa-B kinase subunit alpha (Homo sapiens) (UniProt O15111); test: Inhibition of wild-type human full length IKK-alpha (M1 to E745 residues) expressed in mammalian expression system assessed as residual activity at 1 uM by Kinomescan method relative to control
[17] = molecular target: Tyrosine-protein kinase JAK3 (Homo sapiens) (UniProt P52333); test: Inhibition of wild-type human partial length JAK3 JH1 catalytic domain (I781 to S1124 residues) expressed in mammalian expression system assessed as residual activity at 1 uM by Kinomescan method relative to control
[18] = molecular target: Mitogen-activated protein kinase 8 (Homo sapiens) (UniProt P45983); test: Inhibition of wild-type human full length JNK1 (M1 to Q384 residues) expressed in mammalian expression system assessed as residual activity at 1 uM by Kinomescan method relative to control
Sequence of Mitogen-activated protein kinase 8 (Homo sapiens) (P45983 whole entry, the tested form may be a part): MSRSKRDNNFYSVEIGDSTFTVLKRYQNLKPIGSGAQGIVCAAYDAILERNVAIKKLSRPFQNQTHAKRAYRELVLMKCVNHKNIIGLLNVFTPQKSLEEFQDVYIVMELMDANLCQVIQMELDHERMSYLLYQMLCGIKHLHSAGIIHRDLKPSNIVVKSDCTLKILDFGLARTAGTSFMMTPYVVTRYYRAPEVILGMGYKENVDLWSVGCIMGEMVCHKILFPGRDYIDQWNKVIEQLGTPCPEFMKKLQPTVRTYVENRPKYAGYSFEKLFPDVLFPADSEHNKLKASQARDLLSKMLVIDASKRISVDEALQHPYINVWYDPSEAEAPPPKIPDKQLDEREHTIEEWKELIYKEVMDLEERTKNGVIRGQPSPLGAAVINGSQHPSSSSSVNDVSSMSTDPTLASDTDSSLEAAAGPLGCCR

[19] = tested on: Mast/stem cell growth factor receptor Kit (Homo sapiens), P10721 [V559D,T670I]; test: Inhibition of human partial length KIT V559D/T670I double mutant (Y545 to D952 residues) expressed in bacterial expression system assessed as residual activity at 1 uM by Kinomescan method relative to control
[20] = molecular target: Dual specificity mitogen-activated protein kinase kinase 1 (Homo sapiens) (UniProt Q02750); test: Inhibition of wild-type human full length MEK1 (M1 to V393 residues) expressed in mammalian expression system assessed as residual activity at 1 uM by Kinomescan method relative to control
Sequence of Dual specificity mitogen-activated protein kinase kinase 1 (Homo sapiens) (Q02750 whole entry, the tested form may be a part): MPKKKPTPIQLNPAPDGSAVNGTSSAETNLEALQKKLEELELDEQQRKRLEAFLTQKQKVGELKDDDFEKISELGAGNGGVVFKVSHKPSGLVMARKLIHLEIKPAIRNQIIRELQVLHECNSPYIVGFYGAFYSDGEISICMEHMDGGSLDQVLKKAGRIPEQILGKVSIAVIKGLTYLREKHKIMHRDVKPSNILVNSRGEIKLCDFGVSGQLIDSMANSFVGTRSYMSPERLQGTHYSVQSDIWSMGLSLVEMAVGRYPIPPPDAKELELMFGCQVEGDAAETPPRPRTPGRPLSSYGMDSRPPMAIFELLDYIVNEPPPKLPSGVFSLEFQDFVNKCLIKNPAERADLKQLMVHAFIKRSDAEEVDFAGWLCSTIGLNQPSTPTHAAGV

[21] = molecular target: Hepatocyte growth factor receptor (Homo sapiens) (UniProt P08581); test: Inhibition of wild-type human partial length MET (D1010 to S1367 residues) expressed in bacterial expression system assessed as residual activity at 1 uM by Kinomescan method relative to control
[22] = molecular target: MAP kinase-interacting serine/threonine-protein kinase 1 (Homo sapiens) (UniProt Q9BUB5); test: Inhibition of wild-type human full length MKNK1 (M1 to L424 residues) expressed in mammalian expression system assessed as residual activity at 1 uM by Kinomescan method relative to control
[23] = molecular target: cAMP-dependent protein kinase catalytic subunit alpha (Homo sapiens) (UniProt P17612); test: Inhibition of wild-type human partial length PKAC-alpha (G10 to F351 residues) expressed in bacterial expression system assessed as residual activity at 1 uM by Kinomescan method relative to control
[24] = molecular target: Ribosomal protein S6 kinase alpha-1 (Homo sapiens) (UniProt Q15418); test: Inhibition of wild-type human partial length N-terminal RSK1 Kinase domain 1 (M1 to E388 residues) expressed in bacterial expression system assessed as residual activity at 1 uM by Kinomescan method relative to control
Sequence of Ribosomal protein S6 kinase alpha-1 (Homo sapiens) (Q15418 whole entry, the tested form may be a part): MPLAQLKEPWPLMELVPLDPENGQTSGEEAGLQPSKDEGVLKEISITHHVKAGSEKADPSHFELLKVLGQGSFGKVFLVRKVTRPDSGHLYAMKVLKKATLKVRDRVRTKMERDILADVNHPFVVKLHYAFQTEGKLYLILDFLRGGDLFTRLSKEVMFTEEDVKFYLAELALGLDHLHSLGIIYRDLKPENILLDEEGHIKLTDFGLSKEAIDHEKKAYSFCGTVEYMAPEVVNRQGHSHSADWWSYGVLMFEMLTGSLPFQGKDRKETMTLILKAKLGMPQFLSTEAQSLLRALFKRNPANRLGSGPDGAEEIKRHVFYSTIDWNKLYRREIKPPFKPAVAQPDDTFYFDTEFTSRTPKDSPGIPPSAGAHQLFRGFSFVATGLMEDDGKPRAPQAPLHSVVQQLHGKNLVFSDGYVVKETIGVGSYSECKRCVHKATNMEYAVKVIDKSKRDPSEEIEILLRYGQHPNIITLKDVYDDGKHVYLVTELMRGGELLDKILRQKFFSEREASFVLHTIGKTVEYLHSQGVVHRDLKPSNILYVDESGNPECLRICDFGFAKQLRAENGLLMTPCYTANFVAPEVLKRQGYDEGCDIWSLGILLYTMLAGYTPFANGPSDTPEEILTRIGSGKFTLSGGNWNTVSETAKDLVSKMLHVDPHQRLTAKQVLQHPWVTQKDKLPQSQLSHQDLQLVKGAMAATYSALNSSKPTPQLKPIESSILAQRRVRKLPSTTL

[25] = molecular target: Angiopoietin-1 receptor (Homo sapiens) (UniProt Q02763); test: Inhibition of wild-type human partial length TIE2 (N804 to T1112 residues) expressed in bacterial expression system assessed as residual activity at 1 uM by Kinomescan method relative to control
[26] = molecular target: Vascular endothelial growth factor receptor 2 (Homo sapiens) (UniProt P35968); test: Inhibition of wild-type human partial length VEGFR2 (R787 to P1253 residues) expressed in mammalian expression system assessed as residual activity at 1 uM by Kinomescan method relative to control
[27] = molecular target: Tyrosine-protein kinase ZAP-70 (Homo sapiens) (UniProt P43403); test: Inhibition of wild-type human partial length ZAP70 (D20 to G299 residues) expressed in mammalian expression system assessed as residual activity at 1 uM by Kinomescan method relative to control
Sequence of Tyrosine-protein kinase ZAP-70 (Homo sapiens) (P43403 whole entry, the tested form may be a part): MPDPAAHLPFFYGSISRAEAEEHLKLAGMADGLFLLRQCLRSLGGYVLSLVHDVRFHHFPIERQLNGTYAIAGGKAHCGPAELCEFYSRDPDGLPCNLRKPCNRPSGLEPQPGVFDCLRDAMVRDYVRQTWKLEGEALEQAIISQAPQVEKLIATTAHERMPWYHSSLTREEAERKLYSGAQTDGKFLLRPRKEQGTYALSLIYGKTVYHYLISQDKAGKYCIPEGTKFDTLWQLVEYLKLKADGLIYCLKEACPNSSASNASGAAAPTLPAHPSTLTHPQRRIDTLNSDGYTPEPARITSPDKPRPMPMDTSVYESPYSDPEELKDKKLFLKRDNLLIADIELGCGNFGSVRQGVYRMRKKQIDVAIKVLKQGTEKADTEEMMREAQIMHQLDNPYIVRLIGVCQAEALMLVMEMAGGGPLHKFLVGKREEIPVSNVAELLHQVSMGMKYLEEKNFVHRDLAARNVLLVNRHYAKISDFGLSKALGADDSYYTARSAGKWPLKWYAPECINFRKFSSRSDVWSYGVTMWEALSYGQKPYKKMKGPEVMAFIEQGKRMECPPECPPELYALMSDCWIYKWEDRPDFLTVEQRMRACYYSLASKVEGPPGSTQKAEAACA

With `CCNc1cc(-c2ccc(NC(=O)Nc3cccc(Cl)c3)cc2C(F)(F)F)ccn1` the Activity [1] was 12%, the Activity [2] was “Active” and the Activity [3] was “Non-Toxic”. For the same molecule, the Activity [4] was “Active”, the Activity [5] was “inactive” and the Activity [6] was 80%. It also gave an Activity [7] of 98%, an Activity [8] of 90% and an Activity [9] of 99%. For the same molecule, the Activity [10] was 95%, the Activity [11] was 80% and the Activity [12] was 73%. It also gave an Activity [13] of 95%, an Activity [14] of 80% and an Activity [15] of 78%. The Activity [16] was 95%, the Activity [17] was 98% and the Activity [18] was 75%. It also gave an Activity [19] of 93%, an Activity [20] of 96% and an Activity [21] of 73%. The Activity [22] was 81%, the Activity [23] was 79% and the Activity [24] was 64%. The Activity [25] was 94%, the Activity [26] was 60% and the Activity [27] was 71%.

Reference: ChEMBL document CHEMBL4251622, “Design, synthesis, and biological evaluation of polo-like kinase 1/eukaryotic elongation factor 2 kinase (PLK1/EEF2K) dual inhibitors for regulating breast cancer cells apoptosis and autophagy” (Eur J Med Chem, 2018)
